Assay results reported in patent US12497446B2, “Tetranectin-targeting monoclonal antibodies to fight against lethal sepsis and other pathologies” (The Feinstein Institutes For Medical Research, priority 2019, dated 2025).

Legend:
[1] = system: differentiated human macrophages; experiment: TN/HMGB1-induced formation of ASC foci/speck; type: cell-based; settings: dynasore 20.0 μM, 16 h
Protocol: (§1) FIG. 12(A)-12(C): TN and HMGB1 cooperate to induce macrophage cell death. 12(A) Thioglycolate-elicited murine peritoneal macrophages were treated with TN (10 μg/ml) in the absence or presence of HMGB1 (0.5 μg/ml), TN-specific mAb8 (65.0 μg/ml), or dynasore (10.0 μM) for 16 h, and cell viability was assessed by trypan blue dye exclusion or LDH release assay. *, P<0.05 versus negative control; #, P<0.05 versus “+TN” or “+HMGB1” alone; &, P<0.05 versus positive control “+TN+HMGB1” group, n=6-10 per group. 12(B) Murine peritoneal macrophages were stimulated with TN (10 μg/ml) in the absence or presence of HMGB1 (1.0 μg/ml) for 16 h, and the cell-conditioned medium was assayed for ASC release by Western blotting analysis. SDS-PAGE gel indicated equivalent sampling loading. Bar graph represented average of three samples (n=3) from two independent experiments (N=2). *, P<0.05 versus negative controls (“−HMGB1−TN”); #, P<0.05 versus positive control (“+HMGB1” or “+TN” alone). 12(C) Differentiated human macrophages were stimulated with HMGB1 (1.0 μg/ml) and TN (10.0 μg/ml) in the absence or presence of TN-specific mAb (40 μg/ml) or dynasore (20.0 μM) for 16 h. Subsequently, cells were immunostained with Alexa Fluor 594-conjugated anti-ASC IgGs. Scale bars: 10 μm. Narrow arrows point to minute ASC puncta; Wide arrow points to a larger ASC speck. […]

[2] = system: Murine macrophage-like RAW 264.7 cells; experiment: Cellular HMGB1 and TN uptake; type: cell-based, mouse; settings: Dynasore 8.0 μM or mAb8 60 μg/ml, 2 h
Protocol: Highly purified recombinant HMGB1 and TN protein were labeled with either Alexa Fluor 555 or Alexa Fluor 488 using respective labeling kit (Cat. # A30007 or Cat. # A30006, Thermo Fisher Scientific) according to the manufacturer's instructions. Murine macrophage-like RAW 264.7 cells on cover slips were incubated with unlabeled or Alexa Fluor 555-labeled HMGB1 in the absence or presence of unlabeled or Alexa Fluor 488-labeled TN at 37° C. for 2 h. An endocytosis inhibitor, Dynasore (8.0 μM), or mAb8 (60 μg/ml) were added 30 min before the addition of HMGB1 or TN. Following extensive washings with 1×PBS, cells were fixed with 4% formalin for 20 min at room temperature and mounted on the slide using Vectashield Mounting Medium for Fluorescence with DAPI (Vector Laboratories, Inc., Cat. # H-1200) for nuclei staining (blue). Endocytic uptake of Alexa Fluor 555-labeled HMGB1 (red) or Alexa Fluor 488-labeled TN (green) was visualized via Carl Zeiss fluorescence microscope. To quantitate cellular uptake of HMGB1 and TN, macrophage cultures were incubated with recombinant HMGB1 and TN either individually, or in combination, at 37° C. for 2 h. Following extensive washing, cellular levels of HMGB1 and TN were measured by Western blotting analysis with reference to a house-keeping protein, β-actin.

[3] = system: murine peritoneal macrophages; experiment: TN/HMGB1-induced macrophage cell death (trypan blue, LDH release); type: cell-based, mouse; settings: dynasore 10.0 μM, 16 h
Protocol: as §1

## O=C(N/N=C/c1ccc(O)c(O)c1)c1cc2ccccc2cc1O [dynasore]
[1]
  TN/HMGB1 induced ASC aggregation: inhibit
[2]
  HMGB1-enhanced cellular uptake of TN: similarly attenuated
  TN-mediated enhancement of cellular HMGB1 uptake: prevented
[3]
  TN/HMGB1 induced cell death: inhibit
